Values joined by “and” are separate entries in the source; they are usually repeats but may differ in a detail not shown here. Equal values may be shown once.
System: HT29 xenograft, nude mice, s.c., tumor weight T/C%
Test: NCI In Vivo Anticancer Drug Screen. Data for tumor model HT29;CX-1 Human Adenocarcinoma (MER+) (subcutaneous) in NU/NU Swiss (nude) mice
Conditions: endpoint: optimum tumor weight change, schedule: Q04DX003 (ip), vehicle: saline with Tween-80, higher = larger tumour
Description: The antitumor activity of compounds was measured in mice bearing transplantable tumors. Survival or tumor size were measured and the results are expressed as the measurement made in the treated group (T) divided by the measurement made in the vehicle treated control group (C). The tumor model used in this assay is HT29;CX-1 Human Adenocarcinoma (MER+) (subcutaneous) in NU/NU Swiss (nude) mice

C[C@]12CC[C@@H]3c4ccc(OC(=O)Cc5ccc(N(CCCl)CCCl)cc5)cc4CC[C@H]3[C@@H]1CC[C@@H]2OC(=O)Cc1ccc(N(CCCl)CCCl)cc1
T/C (dose: 150.0 mg/kg/injection): 60 % of control | T/C (dose: 1200.0 mg/kg/injection): 53 % of control and 66 % of control

— PubChem BioAssay AID202 (DTP/NCI, 2004)
